From patent publication US20230112484A1, “COMPOSITIONS FOR CROP PROTECTION” (Agrematch Ltd., priority 2020, published 2023)

Key:
Assay type in all cases: in vivo
Lolium rigidum [1] = experiment: Paper germination (Example 1); conditions: 0.1 mg/ml
Description: (§1) Compounds were dissolved in DMSO and then in distilled water to get 0.1 or 0.5 mg/ml solution with 0.5% DMSO.
(§2) 0.5% DMSO solution in water was used as a negative control. As a positive control, 0.1 mg/ml oxyfluorfen (Galigan) solution was used.
(§3) A towel paper was placed in each box as bedding for seeds. Each box was soaked with 6 ml of the solutions on its paper. 13 seeds were placed on the wet paper and the box was sealed and incubated under conditions provided bellow.
Lolium rigidum—first 4 days under dark conditions at 21° C. Afterwards, plants were incubated at 21° C. for 8 hr in dark, followed by 16 hr at 21° C. in light.
(§4) Gemination was assessed and scored after 3-7 days. Scoring scale: 0—complete germination inhibition, 100—no effect.

Lolium rigidum [2] = experiment: Soil germination (Example 1)
Description: (§5) Compounds were dissolved in DMSO and then in distilled water to get 0.01-2 mg/ml solution with 1% or 2% DMSO. 1% or 2% DMSO solution in water was used as a negative control. As a positive control, 0.1 or 0.2 mg/ml oxyfluorfen (Galigan) solution was used.
(§6) Flowerpots were filled with 30 g of soil, and 4-5 seeds were sowed in each flowerpot. Each treatment contained 3 flowerpots. Each flowerpot was sprayed with 1.5 ml of the dissolved compound. Soil was let dry for about 1 hour at room conditions, and then each flowerpot was sub-irrigated with 40 ml water and incubated under conditions provided below.
(§7) Amaranthus palmeri was incubated at 25° C. for 8 hr in dark, followed by 16 hr at 30° C. in light. Lolium rigidum was incubated at 21° C. for 8 hr in dark, followed by 16 hr at 21° C. in light. Germination was assessed and scored after 4-7 days. Scoring scale: 0—complete germination inhibition, 100—no effect.

Amaranthus palmeri [3] = experiment: Paper germination (Example 1); conditions: 0.1 mg/ml
Description: as §1, §2, §3
Amaranthus palmeri—first 2 days under dark conditions. Plants were first incubated at 25° C. for 8 hr, then at 30° C. for 16 hr. Afterwards, plants were incubated at 25° C. for 8 hr in dark, followed by 16 hr incubation at 30° C. in light.
as §4

Amaranthus palmeri [4] = experiment: Soil germination (Example 1); conditions: for Amaranthus palmeri soil germination: score 0 = complete germination inhibition, 100 = no effect
Description: as §5, §6, §7

Amaranthus palmeri [5] = experiment: Residual activity greenhouse assay; conditions: seeds sowed three weeks after pre-emergence application
From the text: Residual activity of Compound 1 and Compound 2 was examined in greenhouse assay. Three weeks after pre-emergence application, new Amaranthus palmeri seeds were sowed on the same pots and germination was followed.

Abutilon theophrasti [6] = experiment: Soil germination (Example 3); conditions: score 0 = complete germination inhibition, 100 = no effect, after 7 days
Description: (§8) Compounds were dissolved in DMSO and then in distilled water to get 0.1 or 0.5 mg/ml solution with 2% DMSO. 2% DMSO solution in water was used as a negative control. No positive control was used in this assay. Flowerpots were filled with 30 g of soil, each treatment contained three flowerpots. Each flowerpot was sprayed with 1.5 ml of the dissolved compound. Soil was let dry for about 1 hour at room conditions, and then each flowerpot was sub-irrigated with 40 ml water and incubated at controlled growth chambers, under conditions provided on table 6. Gemination was assessed and scored after 7 days. Scoring scale: 0—complete germination inhibition, 100—no effect. [table]

Setaria adhaerens [7] = experiment: Soil germination (Example 3); conditions: score 0 = complete germination inhibition, 100 = no effect, after 7 days
Description: as §8

Zea mays [8] = experiment: Soil germination (Example 3); conditions: score 0 = complete germination inhibition, 100 = no effect, after 7 days
Description: as §8

Triticum vulgare [9] = experiment: Soil germination (Example 3); conditions: score 0 = complete germination inhibition, 100 = no effect, after 7 days
Description: as §8

Lolium rigidum [10] = experiment: Soil germination (Example 3); conditions: score 0 = complete germination inhibition, 100 = no effect, after 7 days
Description: as §8

Amaranthus palmeri [11] = experiment: Soil germination (Example 3); conditions: score 0 = complete germination inhibition, 100 = no effect, after 7 days
Description: as §8

Echinochloa colonum [12] = experiment: Soil germination (Example 3); conditions: score 0 = complete germination inhibition, 100 = no effect, after 7 days
Description: as §8

Zea mays [13] = experiment: Foliar experiment (Example 2); conditions: score 0 = complete phytotoxic effect, 100 = no effect
Description: (§9) Compounds were dissolved in DMSO and then in distilled water to get 0.1 or 0.5 mg/ml solution with 2% DMSO. Break-Thru surfactant was added to a final concentration of 0.05%. Negative control—an aqueous solution of 2% DMSO and 0.05% Break-Thru. Positive control—2 mg/ml Glyphosate (Roundup). 1.5 ml of each compound solution were sprayed on the foliage of different plants, which were 6-16 days old at the day of the experiment. Each treatment contained 3 pots. Plants were let dry for about 15 minutes at room conditions, and then incubated at controlled growth chambers. Phytotoxicity was assessed and scored 4-10 days after applications. Scoring scale: 0—complete phytotoxic effect, 100—no effect. [table]

Triticum vulgare [14] = experiment: Foliar experiment (Example 2); conditions: score 0 = complete phytotoxic effect, 100 = no effect
Description: as §9

a variety of plants = experiment: Foliar experiment (Example 2), overall statement; conditions: as shown in Table 5
Description: as §9

Lactuca sativa [15] = experiment: Soil germination (Example 3); conditions: 0.5 mg/ml; score 0 = complete germination inhibition, 100 = no effect; after 7 days
Description: as §8

Solarium nigrum [16] = experiment: Soil germination (Example 3); conditions: 0.5 mg/ml; score 0 = complete germination inhibition, 100 = no effect; after 7 days
Description: as §8

Gossypium hirsutum [17] = experiment: Soil germination (Example 3); conditions: 0.5 mg/ml; score 0 = complete germination inhibition, 100 = no effect; after 7 days
Description: as §8

Sinapis alba [18] = experiment: Soil germination (Example 3); conditions: 0.5 mg/ml; score 0 = complete germination inhibition, 100 = no effect; after 7 days
Description: as §8

Brassica napus [19] = experiment: Soil germination (Example 3); conditions: 0.5 mg/ml; score 0 = complete germination inhibition, 100 = no effect; after 7 days
Description: as §8

Lactuca sativa [20] = experiment: Foliar experiment (Example 2); conditions: 0.5 mg/ml; score 0 = complete phytotoxic effect, 100 = no effect
Description: as §9

Solarium nigrum [21] = experiment: Foliar experiment (Example 2); conditions: 0.5 mg/ml; score 0 = complete phytotoxic effect, 100 = no effect
Description: as §9

Abutilon theophrasti [22] = experiment: Foliar experiment (Example 2); conditions: 0.5 mg/ml; score 0 = complete phytotoxic effect, 100 = no effect
Description: as §9

Setaria adhaerens [23] = experiment: Foliar experiment (Example 2); conditions: 0.5 mg/ml; score 0 = complete phytotoxic effect, 100 = no effect
Description: as §9

Gossypium hirsutum [24] = experiment: Foliar experiment (Example 2); conditions: 0.5 mg/ml; score 0 = complete phytotoxic effect, 100 = no effect
Description: as §9

Lolium rigidum [25] = experiment: Foliar experiment (Example 2); conditions: 0.5 mg/ml; score 0 = complete phytotoxic effect, 100 = no effect
Description: as §9

Phalaris brachystachys = experiment: Foliar experiment (Example 2); conditions: 0.5 mg/ml; score 0 = complete phytotoxic effect, 100 = no effect
Description: as §9

Sinapis alba [26] = experiment: Foliar experiment (Example 2); conditions: 0.5 mg/ml; score 0 = complete phytotoxic effect, 100 = no effect
Description: as §9

Amaranthus palmeri [27] = experiment: Foliar experiment (Example 2); conditions: 0.5 mg/ml; score 0 = complete phytotoxic effect, 100 = no effect; 4-10 days after application
Description: as §9

Brassica napus [28] = experiment: Foliar experiment (Example 2); conditions: 0.5 mg/ml; score 0 = complete phytotoxic effect, 100 = no effect
Description: as §9

Echinochloa colonum [29] = experiment: Foliar experiment (Example 2); conditions: 0.5 mg/ml; score 0 = complete phytotoxic effect, 100 = no effect
Description: as §9

## CC(Cl)/C=C/C(=O)N(CC(C)C)c1ccc(Cl)cc1F (stereo not drawn)
Lolium rigidum [1]
  paper germination reduction of Lolium rigidum: not active
Lolium rigidum [2]; 1 mg/ml
  Lolium rigidum soil germination: unable to reduce soil germination
Amaranthus palmeri [3]
  paper germination reduction of Amaranthus palmeri: not active

## CC(Cl)/C=C/C(=O)N(Cc1ccc(Cl)nc1)CC(C)C (stereo not drawn) [Compound 2]
Amaranthus palmeri [4]; 0.01 mg/ml
  Amaranthus palmeri soil germination: 60
Amaranthus palmeri [4]; 0.025 mg/ml
  Amaranthus palmeri soil germination: 50
Amaranthus palmeri [4]; 0.05 mg/ml
  Amaranthus palmeri soil germination: 0
Amaranthus palmeri [4]; 0.1 mg/ml
  Amaranthus palmeri soil germination: 0
Amaranthus palmeri [5]
  Residual activity: germination of newly sowed Amaranthus palmeri seeds: no germination was observed
Abutilon theophrasti [6]; 0.1 mg/ml
  Herbicidal activity, soil germination, Abutilon theophrasti: 100
Setaria adhaerens [7]; 0.1 mg/ml
  Herbicidal activity, soil germination, Setaria adhaerens: 80
Zea mays [8]; 0.1 mg/ml
  Herbicidal activity, soil germination, Zea mays: 100
Triticum vulgare [9]; 0.1 mg/ml
  Herbicidal activity, soil germination, Triticum vulgare: 100
Lolium rigidum [10]; 0.1 mg/ml
  Herbicidal activity, soil germination, Lolium rigidum: 90
Amaranthus palmeri [11]; 0.1 mg/ml
  Herbicidal activity, soil germination, Amaranthus palmeri: 0
Echinochloa colonum [12]; 0.1 mg/ml
  Herbicidal activity, soil germination, Echinochloa colonum: 100
Zea mays [13]; 0.1 mg/ml
  Herbicidal activity, foliar, Zea mays: 90
Triticum vulgare [14]; 0.1 mg/ml
  Herbicidal activity, foliar, Triticum vulgare: 90

## CC(Cl)/C=C/C(=O)N(Cc1ccc(Cl)s1)CC(C)C (stereo not drawn) [Compound 4]
Lolium rigidum [2]; 0.5 mg/ml, score 0 = complete germination inhibition, 100 = no effect
  Lolium rigidum soil germination: 60
Lolium rigidum [2]; 2 mg/ml, score 0 = complete germination inhibition, 100 = no effect
  Lolium rigidum soil germination: 70
Lolium rigidum [2]; concentration not given
  soil germination of Lolium rigidum, result in words: active
Amaranthus palmeri [4]; 0.1 mg/ml
  Amaranthus palmeri soil germination: 0
Amaranthus palmeri [4]; 0.25 mg/ml
  Amaranthus palmeri soil germination: 0
Amaranthus palmeri [4]; 0.5 mg/ml
  Amaranthus palmeri soil germination: 0
Amaranthus palmeri [4]; 1 mg/ml
  Amaranthus palmeri soil germination: 0
Amaranthus palmeri [4]; concentration not given
  soil germination of Amaranthus palmeri, result in words: active
A variety of plants
  Herbicidal activity in a variety of plants, foliar, result in words: solid herbicidal activity
Lactuca sativa [15]
  Herbicidal activity, soil germination, Lactuca sativa: 70
Solarium nigrum [16]
  Herbicidal activity, soil germination, Solarium nigrum: 10
Abutilon theophrasti [6]; 0.5 mg/ml
  Herbicidal activity, soil germination, Abutilon theophrasti: 10
Setaria adhaerens [7]; 0.5 mg/ml
  Herbicidal activity, soil germination, Setaria adhaerens: 5
Zea mays [8]; 0.5 mg/ml
  Herbicidal activity, soil germination, Zea mays: 80
Triticum vulgare [9]; 0.5 mg/ml
  Herbicidal activity, soil germination, Triticum vulgare: 60
Gossypium hirsutum [17]
  Herbicidal activity, soil germination, Gossypium hirsutum: 90
Lolium rigidum [10]; 0.5 mg/ml
  Herbicidal activity, soil germination, Lolium rigidum: 60
Sinapis alba [18]
  Herbicidal activity, soil germination, Sinapis alba: 30
Amaranthus palmeri [11]; 0.5 mg/ml
  Herbicidal activity, soil germination, Amaranthus palmeri: 0
Brassica napus [19]
  Herbicidal activity, soil germination, Brassica napus: 10
Echinochloa colonum [12]; 0.5 mg/ml
  Herbicidal activity, soil germination, Echinochloa colonum: 5
Lactuca sativa [20]
  Herbicidal activity, foliar, Lactuca sativa: 0
Solarium nigrum [21]
  Herbicidal activity, foliar, Solarium nigrum: 0
Abutilon theophrasti [22]
  Herbicidal activity, foliar, Abutilon theophrasti: 5
Setaria adhaerens [23]
  Herbicidal activity, foliar, Setaria adhaerens: 5
Zea mays [13]; 0.5 mg/ml
  Herbicidal activity, foliar, Zea mays: 80
Triticum vulgare [14]; 0.5 mg/ml
  Herbicidal activity, foliar, Triticum vulgare: 100
Gossypium hirsutum [24]
  Herbicidal activity, foliar, Gossypium hirsutum: 60
Lolium rigidum [25]
  Herbicidal activity, foliar, Lolium rigidum: 10
Phalaris brachystachys
  Herbicidal activity, foliar, Phalaris brachystachys: 5
Sinapis alba [26]
  Herbicidal activity, foliar, Sinapis alba: 10
Amaranthus palmeri [27]
  Herbicidal activity, foliar, Amaranthus palmeri: 0
Brassica napus [28]
  Herbicidal activity, foliar, Brassica napus: 0
Echinochloa colonum [29]
  Herbicidal activity, foliar, Echinochloa colonum: 70
